Key:
[1] = In vivo mouse PK, oral administration (FIG. 1); design: species or system male C57Bl mice; details: orally administered, 60 μmol/kg in 1% Methocel A4C vehicle
Text: Various embodiments of the invention will now be described by way of illustration only with reference to the following Examples and FIG. 1 which depicts plasma concentration against time for male C57Bl mice orally administered a compound of the invention or a compound of the prior art.

[2] = reference markers for the permeability assay; cited from earlier work
[3] = Metabolic stability in whole blood; format: in vitro ADME; details: worked out from whole blood CLint
Method: Compounds of the invention and the indicated comparative examples were tested for metabolic stability in a cytosol assay in which the compounds were incubated with commercially available human hepatic cytosol fractions and the disappearance of the compound monitored by HPLC or LC/MS. Pooled human liver cytosol fractions are less likely to represent outlier individuals than blood from a single individual and can be stored frozen, unlike whole blood. The cytosol assay thus provides a consistent assay testbed as a guide to the stability of a compound in the in vivo environment, such as when exposed to whole blood.
In short, test compounds (2 μM) are incubated in pooled human liver cytosol (Xenotech LLC Lenexa US, 1 mg/mL protein in 0.1 M phosphate buffer, pH 7.4) at 37° centigrade over a one hour period. The incubations are initiated by the addition of 1 mM NADPH co-factor. Timed sub-samples were taken at 0, 20, 40 and 60 minutes and “crash precipitated” by the addition of 3 volumes of ice-cold acetonitrile. The samples were centrifuged at reduced temperature and the supernatants were separated and analyzed by LC-MS-MS.
Alternatively, an analogous stability assay is carried out in human or monkey whole blood and/or commercially available liver microsomes, such as XEN 025.

Row | SMILES | % absorption in man [2] [%] | also measured
1 | C#C[C@@H]1CN(C(=O)[C@H](CC(C)C)NC(=O)c2ccc(-c3nc(N4CCN(C)CC4)sc3F)cc2)[C@@H]2C(=O)CO[C@H]12 [Example 2, N-[1-6-(ethynyl-3-oxo-hexahydro-furo[3,2-b]pyrrole-4-carbonyl)-3-methyl-butyl]-4-[5-fluoro-2-(4-methyl-piperazin-1-yl)thiazol-4-yl]-benzamide] | – | in vivo exposure (Cmax or AUC) compared with the prior art compound [1]: very much greater
2 | N[C@@H](Cc1ccccc1)C(=O)O [L-Phenylalanine] | 100 | –
3 | OC[C@@H](O)[C@@H](O)[C@H](O)[C@H](O)CO [Mannitol] | 16 | –
4 | CN(Cc1cnc2nc(N)nc(N)c2n1)c1ccc(C(=O)N[C@@H](CCC(=O)O)C(=O)O)cc1 [Methotrexate] | 20 | –
5 | CC(C)C[C@H](NC(=O)c1ccc(-c2csc(N3CCN(C)CC3)n2)cc1)C(=O)N1C[C@@H](C)[C@H]2OCC(=O)[C@H]21 [comparative example] | – | estimated / calculated whole blood half life [3]: little over an hour

Source: patent US9200006B2, “Protease inhibitors” (MEDIVIR AB, priority 2008, dated 2015)
